# Test results: patent publication US20260055083A1, “APOL1 INHIBITORS AND METHODS OF USE” (Maze Therapeutics, Inc., priority 2022, published 2026)
# Key:
# [1] = target: T1, APOL1 G2 (Homo sapiens, UniProt O14791, DEL388-389); assay: APOL1 G2 HEK293 rescue of cell death caused by overexpression of APOL1 (CellTiter-Glo); type: cell-based; details: HEK293/T-REx APOL1 G2 clone #2, doxycycline induction, 17 hours, CellTiter-Glo luminescence; reversal of cell death; geometric mean of at least 2 assay runs
# T1 construct: expressed in transfected cells; host or cells: HEK293/T-REx APOL1 G2 clone #2, doxycycline-inducible
# T1 sequence (O14791 with tags, fused parts or gaps DEL388-389): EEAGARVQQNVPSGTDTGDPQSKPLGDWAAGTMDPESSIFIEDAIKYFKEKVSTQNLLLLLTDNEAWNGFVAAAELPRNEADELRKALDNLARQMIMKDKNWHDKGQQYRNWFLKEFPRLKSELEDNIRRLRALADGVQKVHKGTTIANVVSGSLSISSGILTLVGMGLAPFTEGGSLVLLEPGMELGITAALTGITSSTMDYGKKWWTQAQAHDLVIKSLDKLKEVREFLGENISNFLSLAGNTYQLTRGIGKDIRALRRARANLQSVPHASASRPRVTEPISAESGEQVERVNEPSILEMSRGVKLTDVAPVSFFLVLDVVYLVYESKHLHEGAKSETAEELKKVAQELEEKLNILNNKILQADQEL
# Outline: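 Viability read by CellTiter-Glo luminescence after 17 h, 37 °C, in HEK293/T-REx cells expressing APOL1 G2 on 6 ng/mL doxycycline, 5,000 cells/well. Compounds tested as duplicate 8-point, 3-fold dilutions, 0.5% DMSO final; four-parameter logistic EC50, usually geometric mean of ≥2 days.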
# [2] = target: T1, APOL1 G2; assay: APOL1 G2 FLIPR calcium influx assay (HEK T-REx/GCaMP6f/APOL1 G2 K6.3 cells); type: cell-based; details: HEK293 clone expressing GCaMP6f, doxycycline-induced APOL1 G2; prevention of calcium influx; geometric mean of at least 2 assay runs
# Outline: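 Cells express GCaMP6f stably and APOL1 G2 after a 6 h doxycycline induction. Duplicate 8-point dilutions sit 10 min at room temperature in Ca2+-free Tyrode's (pH 7.4), then Ca2+ is injected to 5 mM final and the FLIPR signal recorded. AC50s are geometric means across ≥2 days.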
AC50 [2] [nM],SMILES,EC50 [1] [nM]
744,"CC(C(O)c1cc(Cl)cc(C#N)c1)N1C[C@@H](COc2ccc(S(C)(=O)=O)cc2)[C@H](C)C1 (single isomer, unassigned) [Compound 102, 3-chloro-5-((1R,2R or 1S,2S)-1-hydroxy-2-((3S,4S)-3-methyl-4-((4-(methylsulfonyl)phenoxy)methyl)pyrrolidin-1-yl)propyl)benzonitrile]",> 10000
868,"CS(=O)(=O)c1ccc(OC[C@@H]2CN(CCc3cc(Cl)cc(C#N)c3)CCN2)cc1C(F)(F)F [Compound 114, 3-chloro-5-{2-[(3S)-3-{[4-methanesulfonyl-3-(trifluoromethyl)phenoxy]methyl}piperazin-1-yl]ethyl}benzonitrile]",295
< 86.6,"CS(=O)(=O)C1(c2ccc(OC[C@@H]3CN(CCc4cccc(Cl)c4)CCN3)cc2)COC1 [Compound 107, (3S)-1-[2-(3-chlorophenyl)ethyl]-3-{[4-(3-methanesulfonyloxetan-3-yl)phenoxy]methyl}piperazine]",245
409,"Cc1cc(OC[C@@H]2CN(CCc3cc(Cl)cc(C#N)c3)CCN2)ccc1S(C)(=O)=O [Compound 112, 3-chloro-5-{2-[(3S)-3-[(4-methanesulfonyl-3-methylphenoxy)methyl]piperazin-1-yl]ethyl}benzonitrile]",296
160,"CC(c1ccc(OC[C@@H]2CN(CCc3cccc(Cl)c3)CCN2)cc1)S(C)(=O)=O (single isomer, unassigned) [Compound 141, (3S)-1-[2-(3-chlorophenyl)ethyl]-3-({4-[(1R) or (1S)-1-methanesulfonylethyl]phenoxy}methyl)piperazine]",234
700,"C[C@@H]1CN(CC(O)c2cccc(C#N)c2)C[C@H]1COc1ccc(S(C)(=O)=O)nc1 (stereo partly drawn) [Compound 104, 3-{1-hydroxy-2-[(3S,4S)-3-{[(6-methanesulfonylpyridin-3-yl)oxy]methyl}-4-methylpyrrolidin-1-yl]ethyl}benzonitrile]",1010
765,"CC(C(O)c1cc(Cl)cc(C#N)c1)N1C[C@@H](COc2ccc(S(C)(=O)=O)cc2)[C@H](C)C1 (single isomer, unassigned) [Compound 101, 3-chloro-5-((1S,2R or 1R,2S)-1-hydroxy-2-((3S,4S)-3-methyl-4-((4-(methylsulfonyl)phenoxy)methyl)pyrrolidin-1-yl)propyl)benzonitrile]",> 10000
1700,"C[C@@H]1CN(C(CO)Cc2cccc(Cl)c2)C[C@H]1COc1ccc(S(C)(=O)=O)cc1 (single isomer, unassigned) [Compound 116, (2R or 2S)-3-(3-chlorophenyl)-2-[(3S,4S)-3-[(4-methanesulfonylphenoxy)methyl]-4-methylpyrrolidin-1-yl]propan-1-ol]",> 10000
1130,"C[C@@H]1C[C@@H](COc2ccc(S(C)(=O)=O)cc2)CN1CCc1cccc(Cl)c1 [Compound 145, (2R,4R)-1-[2-(3-chlorophenyl)ethyl]-4-[(4-methanesulfonylphenoxy)methyl]-2-methylpyrrolidine]",1770

# Further lines, the compound ahead of its results:
SMILES,AC50 [2] [nM],EC50 [1] [nM]
"C[C@@H]1C[C@H](COc2ccc(S(C)(=O)=O)cc2)CN1C1CCc2c(C#N)cc(Cl)cc2C1 (single isomer, unassigned) [Compound 7, (6R or 6S)-3-chloro-6-[(2R,4S)-4-[(4-methanesulfonylphenoxy)methyl]-2-methylpyrrolidin-1-yl]-5,6,7,8-tetrahydronaphthalene-1-carbonitrile]",1540,195
"C[C@@H]1C[C@H](COc2ccc(S(=O)(=O)CCS(C)(=O)=O)cc2)CN1C1CCc2ccc(Cl)cc2C1 (stereo partly drawn) [Compound 49, (2R,4S)-1-[7-chloro-1,2,3,4-tetrahydronaphthalen-2-yl]-4-{[4-(2-methanesulfonylethanesulfonyl)phenoxy]methyl}-2-methylpyrrolidine]",558,193
"C[C@@H]1C[C@H](COc2ccc(S(C)(=O)=O)nc2)CN1CCc1cc(Cl)cc(C#N)c1 [Compound 65, 3-chloro-5-{2-[(2R,4S)-4-{[(6-methanesulfonylpyridin-3-yl)oxy]methyl}-2-methylpyrrolidin-1-yl]ethyl}benzonitrile]",346,49.8
"C[C@@H]1C[C@H](COc2ccc(S(=O)(=O)CCO)cc2)CN1C1CCc2c(C#N)cc(Cl)cc2C1 (single isomer, unassigned) [Compound 57, (6S or 6R)-3-chloro-6-[(2R,4S)-4-{[4-(2-hydroxyethanesulfonyl)phenoxy]methyl}-2-methylpyrrolidin-1-yl]-5,6,7,8-tetrahydronaphthalene-1-carbonitrile]",802,266
"Cc1cc(OC[C@@H]2CN(CCc3cc(Cl)cc(C#N)c3)C[C@H]2C)ccc1S(C)(=O)=O [Compound 84, 3-chloro-5-{2-[(3S,4S)-3-[(4-methanesulfonyl-3-methylphenoxy)methyl]-4-methylpyrrolidin-1-yl]ethyl}benzonitrile]",182,28.6
"C[C@@H]1C[C@H](COc2ccc(S(=O)(=O)CCCS(C)(=O)=O)cc2)CN1C1CCc2c(C#N)cccc2C1 (single isomer, unassigned) [Compound 41, (6S or 6R)-6-[(2R,4S)-4-{[4-(3-methanesulfonylpropanesulfonyl)phenoxy]methyl}-2-methylpyrrolidin-1-yl]-5,6,7,8-tetrahydronaphthalene-1-carbonitrile]",1180,62.8
"C[C@@H]1C[C@H](COc2ccc(S(=O)(=O)CCS(C)(=O)=O)cc2)CN1C1CCc2ccc(C#N)cc2C1 (single isomer, unassigned) [Compound 31]",773,234
"C[C@@H]1C[C@H](COc2ccc(S(=O)(=O)CCS(C)(=O)=O)cc2)CN1C1CCc2ccc(Cl)cc2C1 (single isomer, unassigned) [Compound 51, (2R,4S)-1-[(2R or 2S)-7-chloro-1,2,3,4-tetrahydronaphthalen-2-yl]-4-{[4-(2-methanesulfonylethanesulfonyl)phenoxy]methyl}-2-methylpyrrolidine]",439,128
"C[C@@H]1C[C@H](COc2ccc(S(C)(=O)=O)nc2)CN1CC(O)c1cccc(C#N)c1 (single isomer, unassigned) [Compound 94, 3-[(1S or 1R)-1-hydroxy-2-[(2R,4S)-4-{[(6-methanesulfonylpyridin-3-yl)oxy]methyl}-2-methylpyrrolidin-1-yl]ethyl]benzonitrile]",614,103
"CS(=O)(=O)c1ccc(OC[C@@H]2CN(CCc3cc(Cl)cc(C#N)c3)C[C@H]2CO)cc1 [Compound 24, 3-chloro-5-{2-[(3S,4S)-3-(hydroxymethyl)-4-[(4-methanesulfonylphenoxy)methyl]pyrrolidin-1-yl]ethyl}benzonitrile]",310,410
"C[C@@H]1C[C@H](COc2ccc(S(=O)(=O)CCO)cc2)CN1C1CCc2ccc(C#N)cc2C1 (single isomer, unassigned) [Compound 60, (7S or 7R)-7-[(2R,4S)-4-{[4-(2-hydroxyethanesulfonyl)phenoxy]methyl}-2-methylpyrrolidin-1-yl]-5,6,7,8-tetrahydronaphthalene-2-carbonitrile]",477,37
